The target in one series is T1, human CCR5 (Homo sapiens, UniProt P51681).
T1 construct: expressed in transfected cells
Briefly: Evaluation of test compounds based on CCR5 antagonistic activity: inhibition of [125I]-RANTES binding to CCR5/CHO cells. Particulars: Test Compound 1 μM, 100 pM [125I]-RANTES, room temperature for 40 minutes; for inhibition at 1 µM: read-out: Inhibitory Rate (%). Here is the method: Cloning of CCR5 gene was carried out by a PCR method from human spleen cDNA. With using 0.5 ng of spleen cDNA (Toyobo, QUICK-Clone cDNA) as template, PCR was performed in DNA Thermal Cycler 480 (Perkin-Elmer) (reaction conditions: 30 cycles of 95° C. for 1 minute, 60° C. for 1 minute, and 75° C. for 5 minutes) by adding each 25 pmol of primers of a primer set, • SEQ ID NO.: 1 described in Test Example (1) of WO 99/32100 [length of sequence: 34; type of sequence: nucleic acid; strandedness: single; topology: straight; kind of sequence: other nucleic acid synthetic DNA, and • SEQ ID NO.: 2 described in Test Example (1) of WO 99/32100 [length of sequence: 34; type of sequence: nucleic acid; strandedness: single; topology: straight; kind of sequence: other nucleic acid synthetic DNA which were designed referring to nucleotide sequence of CCR5 gene reported by Samson et. al. (Biochemistry, 35(11), 3362-3367 (1996)) and by using TaKaRa EX Taq (Takara Shuzo). The resultant PCR product was subjected to agarose gel electrophoresis to collect about 1.0 kb DNA fragment, which was subjected to Original TA Cloning Kit (Funakoshi) to carry out cloning of CCR5 gene. (2) Preparation of Plasmid for Expression of Human CCR5
The plasmid obtained in the above (1) was digested with restriction enzymes XbaI (Takara Shuzo) and BamHI (Takara Shuzo) and subjected to agarose gel electrophoresis to collect about 1.0 kb DNA fragment.
The DNA fragment was mixed with plasmid pcDNA3.1 (Funakoshi) for expression in animal cells, said plasmid being digested with XbaI and BamHI, and they were ligated with DNA Ligation Kit Ver.2 (Takara Shuzo). The resulting plasmid was subjected to transformation of competent cell of E. coli JM109 (Takara Shuzo) to obtain plasmid pCKR5.
CHO-K1 cells were grown in 750 ml of tissue culture flask (Becton Dickinson) using Ham's F12 medium (Nihon Pharmaceutical) containing 10% fetal calf serum (Life Tech Oriental) and taken off with 0.5 g/L trypsin-0.2 g/L EDTA (Life Tech Oriental). The cells were washed with PBS (Life Tech Oriental), centrifuged (1000 rpm, 5 minutes), and suspended in PBS. With using Gene Pulser (Bio-Rad Laboratories), DNA was introduced into the cells under the conditions shown below. That is, to the cuvette of 0.4 cm gap were added 8×10^6 cells and 10 μg of plasmid pCKR5 for expression of human CCR5, and electroporation was carried out under 0.25 kV of voltage and 960 μF of capacitance. The cells were transferred into Ham's F12 medium containing 10% fetal calf serum, and cultivated for 24 hours. The cells were again taken off and centrifuged, and suspended in Ham's F12 medium containing 10% fetal calf serum and 500 μg/ml of geneticin (Life Tech Oriental). The suspension was diluted to give 10^4 cells/ml of the suspension, which was inoculated on a 96 well plate (Becton Dickinson) to give geneticin resistant cells.
The resulting geneticin resistant cells were cultivated in 96 well plate (Becton Dickinson), and cells expressing CCR5 were selected from the geneticin resistant cells. That is, in assay buffer (Ham's F12 medium containing 0.5% BSA and 20 mM HEPES (Wako Pure Chemical, pH7.2)) to which was added 200 pM of [^125I]-RANTES (Amersham) as a ligand, a binding reaction was carried out at room temperature for 46 minutes, and the buffer was washed with cooled PBS. To the buffer was added 50 μl/well of 1M NaOH, and the mixture was stirred. Radioactivity was determined with a y-counter to select CCR5/CHO cells which specifically bind to the ligand.
The CCR5/CHO cells were inoculated on 96 well microplate (5×10^4 cells/well) and cultivated for 24 hours. The medium was removed by means of suction, and to each well was added an assay buffer containing Test Compound (1 μM) and then 100 pM of [^125I]-RANTES (Amersham) as a ligand. A binding assay was carried out at room temperature for 40 minutes, and an assay buffer was removed by means of suction. […]

T1 sequence (P51681 whole entry): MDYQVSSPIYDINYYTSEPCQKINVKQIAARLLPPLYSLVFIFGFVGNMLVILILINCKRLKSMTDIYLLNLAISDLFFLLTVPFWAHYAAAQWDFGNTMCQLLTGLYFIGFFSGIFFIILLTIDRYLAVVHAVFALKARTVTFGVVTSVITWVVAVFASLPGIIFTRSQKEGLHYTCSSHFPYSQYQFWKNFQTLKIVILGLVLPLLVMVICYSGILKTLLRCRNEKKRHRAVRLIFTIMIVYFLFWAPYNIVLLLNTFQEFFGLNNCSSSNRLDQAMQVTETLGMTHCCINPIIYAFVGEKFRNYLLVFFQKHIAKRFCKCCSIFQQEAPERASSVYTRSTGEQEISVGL

Consider `CCOCCCOc1ccc(-c2ccc3c(c2)C=C(C(=O)Nc2ccc(CN(C)C4CCOCC4)cc2)CCN3C=O)cc1` [Compound 2, 7-[4-(3-ethoxypropoxy)phenyl]-1-formyl-N-[4-[[N-methyl-N-(tetrahydro-2H-pyran-4-yl)amino]methyl]phenyl]-2,3-dihydro-1H-1-benzazepine-4-carboxamide], for which the melting point (as a rule, the temperature of the solid-liquid transition) was 166 to 169 °C. The inhibition at 1 µM on human CCR5 came out at 96%.

For `CCCCOCCOc1ccc(-c2ccc3c(c2)C=C(C(=O)Nc2ccc(CN(C)C4CCOCC4)cc2)CCN3CC)cc1` [Compound 19, 7-[4-(2-butoxyethoxy)phenyl]-1-ethyl-N-[4-[[N-methyl-N-(tetrahydro-2H-pyran-4-yl)amino]methyl]phenyl]-2,3-dihydro-1-H-1-benzazepine-4-carboxamide], at human CCR5, the “Inhibitory Rate (%)” value is reported as 100%.

For `CCOCCOc1ccc(-c2ccc3c(c2)C=C(C(=O)Nc2ccc(CN(C)C4CCOCC4)cc2)CCN3C=O)cc1F` [Compound 20, 7-[4-(2-ethoxy)ethoxy-3-fluorophenyl]-1-formyl-N-[4-[[N-methyl-N-(tetrahydro-2H-pyran-4-yl)amino]methyl]phenyl]-2,3-dihydro-1H-1-benzazepine-4-carboxamide], the inhibition at 1 µM on human CCR5 is 94%.

The compound `CCOc1cc(-c2ccc3c(c2)C=C(C(=O)Nc2ccc(CN(C)C4CCOCC4)cc2)CCN3C=O)ccc1OCCOC(C)C` [Compound 23, 7-[3-ethoxy-4-(2-propoxy)ethoxyphenyl]-1-formyl-N-[4-[[N-methyl-N-(tetrahydro-2H-pyran-4-yl)amino]methyl]phenyl]-2,3-dihydro-1H-1-benzazepine-4-carboxamide] registered a melting point of 117 to 119 °C. Moreover, the inhibition at 1 µM at human CCR5 amounted to 97%.

The compound `CCCOCCOc1ccc(-c2ccc3c(c2)C=C(C(=O)Nc2ccc(CN(C)C4CCOCC4)cc2)CCN3CCC)cc1` [Compound 26, N-[4-[[N-methyl-N-(tetrahydro-2H-pyran-4-yl)amino]methyl]phenyl]-7-[4-(2-propoxyethoxy)phenyl]-1-propyl-2,3-dihydro-1H-1-benzazepine-4-carboxamide] displayed a melting point of 128 to 130 °C. On human CCR5, the inhibition at 1 µM turned out to be 100%.

In turn, `CCCCOCCOc1ccc(-c2ccc3c(c2)C=C(C(=O)Nc2ccc(CN(C)C4CCOCC4)cc2)CCN3CCC)cc1` [Compound 27, 7-[4-(2-butoxyethoxy)phenyl]-N-[4-[[N-methyl-N-(tetrahydro-2H-pyran-4-yl)amino]methyl]phenyl]-1-propyl-2,3-dihydro-1H-1-benzazepine-4-carboxamide] yielded a melting point of 122 to 124 °C. For the same compound, the inhibition at 1 µM at human CCR5 was determined as 100%.

For the compound `CCCCOCCOc1ccc(-c2ccc3c(c2)C=C(C(=O)Nc2ccc(CN(C)C4CCOCC4)cc2)CCN3c2ccccc2)cc1` [Compound 39, 7-[4-(2-butoxyethoxy)phenyl]-1-phenyl-N-[4-[[N-methyl-N-(tetrahydro-2H-pyran-4-yl)amino]methyl]phenyl]-2,3-dihydro-1H-1-benzazepine-4-carboxamide], the inhibition at 1 µM at human CCR5 is 98%.

Take `CCCCOCCOc1ccc(-c2ccc3c(c2)C=C(C(=O)Nc2ccc(CN(C)C4CCOCC4)cc2)CCN3c2ccc3c(c2)OCO3)cc1` [Compound 43, 7-[4-(2-butoxyethoxy)phenyl]-1-(3,4-methylenedioxyphenyl)-N-[4-[[N-methyl-N-(tetrahydro-2H-pyran-4-yl)amino)methyl]phenyl]-2,3-dihydro-1H-1-benzazepine-4-carboxamide]: the inhibition at 1 µM on human CCR5 amounted to 100%.

In the case of `CCCCOCCOc1ccc(-c2ccc3c(c2)C=C(C(=O)Nc2ccc(CN(C)C4CCOCC4)cc2)CCN3Cc2nccs2)cc1` [Compound 68, 7-(4-butoxyethoxyphenyl)-N-[4-[[N-methyl-N-(tetrahydropyran-4-yl)amino]methyl]phenyl]-1-(thiazol-2-yl)methyl-2,3-dihydro-1-benzazepine-4-carboxamide], the inhibition at 1 µM on human CCR5 came to 95%.

Turning to `CCCCOCCOc1ccc(-c2ccc3c(c2)C=C(C(=O)Nc2ccc(CN(C)C4CCOCC4)cc2)CCN3Cc2cnn(C)c2)cc1` [Compound 69, 7-(4-butoxyethoxyphenyl)-1-[(1-methylpyrazol-4-yl)methyl]-N-[4-[[N-methyl-N-(tetrahydropyran-4-yl)amino]methyl]phenyl]-2,3-dihydro-1-benzazepine-4-carboxamide], on human CCR5, the inhibition at 1 µM was 100%.

With `CCCCOCCOc1ccc(-c2ccc3c(c2)C=C(C(=O)Nc2ccc(CN(C)C4CCOCC4)cc2)CCN3Cc2c(C)noc2C)cc1` [Compound 71, 7-(4-butoxyethoxyphenyl)-1-[(3,5-dimethylisoxazol-4-yl)methyl]-N-[4-[[N-methyl-N-(tetrahydropyran-4-yl)amino]methyl]phenyl]-2,3-dihydro-1-benzazepine-4-carboxamide], the inhibition at 1 µM at human CCR5 was determined as 100%.

Regarding `CCCCOCCOc1ccc(-c2ccc3c(c2)C=C(C(=O)Nc2ccc(CN(C)C4CCCOC4)cc2)CCN3Cc2cc(C)ns2)cc1` (stereo not shown) [Compound 77, 7-(4-butoxyethoxyphenyl)-1-[(3-methylisothiazol-5-yl)methyl]-N-[4-[[N-methyl-N-(tetrahydropyran-5-yl)amino]methyl]phenyl]-2,3-dihydro-1-benzazepine-4-carboxamide], on human CCR5, the inhibition at 1 µM was 97%.

In the case of `CCCCOCCOc1ccc(-c2ccc3c(c2)C=C(C(=O)Nc2ccc(CN(C)C4CCCOC4)cc2)CCN3Cc2cnn(CC)c2)cc1` (stereo not shown) [Compound 79, 7-(4-butoxyethoxyphenyl)-1-[(1-ethylpyrazol-4-yl)methyl]-N-[4-[[N-methyl-N-(tetrahydropyran-5-yl)amino]methyl]phenyl]-2,3-dihydro-1-benzazepine-4-carboxamide], on human CCR5, the inhibition at 1 µM worked out at 100%.

`CCCOCCOc1ccc(-c2ccc3c(c2)C=C(C(=O)Nc2ccc(CN(C)C4CCOCC4)cc2)CCN3CC(C)C)cc1` [Compound 84, 1-isobutyl-N-[4-[N-methyl-N-(tetrahydropyran-4-yl)aminomethyl]phenyl]-7-[4-(2-propoxyethoxy)phenyl]-2,3-dihydro-1-benzazepine-4-carboxamide]: on human CCR5, the inhibition at 1 µM was 97%.

For the compound `CCCCOCCOc1ccc(-c2ccc3c(c2)C=C(C(=O)Nc2ccc(CN(C)C4CCOCC4)cc2)CCN3CC(C)C)cc1` [Compound 85], on human CCR5, the “Inhibitory Rate (%)” value stood at 100%.

As for `CCCCOCCOc1ccc(-c2ccc3c(c2)C=C(C(=O)Nc2ccc(CN(C)C4CCOCC4)cc2)CCN3Cc2cncs2)cc1` [Compound 98], on human CCR5, the “Inhibitory Rate (%)” value worked out at 100%.

With `CCCCOCCOc1ccc(-c2ccc3c(c2)C=C(C(=O)Nc2ccc(CN(C)C4CCOCC4)cc2)CCN3Cc2nnn(C)n2)cc1` [Compound 102, 7-[4-(2-butoxyethoxy)phenyl]-N-[4-[N-methyl-N-(tetrahydropyran-4-yl)aminomethyl]phenyl]-1-(2-methyltetrazol-5-ylmethyl)-2,3-dihydro-1-benzazepine-4-carboxamide], the inhibition at 1 µM at human CCR5 was 100%.

For the compound `CCCCOCCOc1ccc(-c2ccc3c(c2)C=C(C(=O)Nc2ccc(CN(C)C4CCOCC4)cc2)CCN3Cc2nnn(CC)n2)cc1` [Compound 112, 7-[4-(2-butoxyethoxy)phenyl]-1-(2-ethyltetrazol-5-ylmethyl)-N-[4-[N-methyl-N-(tetrahydropyran-4-yl)aminomethyl]phenyl]-2,3-dihydro-1-benzazepine-4-carboxamide], the inhibition at 1 µM at human CCR5 was 100%.

Source of the values: patent US6936602B1, “Benzazepine derivatives, process for the preparation of the same and uses thereof” (Takeda Chemical Industries, Ltd., priority 1999, dated 2005).
